Measurements as given in patent publication US12203938B2, “Levetiracetam immunoassays” (ARK Diagnostics, Inc., priority 2008, dated 2025).

How the values were obtained:
[1] = system: antibody #12019-P8; experiment: Specificity / crossreactivity of the immunoassay with levetiracetam metabolite; format: binding, rabbit; conditions: for % Cross Reactivity: 100 × apparent concentration of levetiracetam / concentration of crossreactant
Excerpt: Antibodies obtained using any of the disclosed techniques are screened or purified not only for their ability to react with levetiracetam, but for a low cross-reactivity with potential interfering substances. “Cross-reactivity” may be determined in a quantitative immunoassay by establishing a standard curve using known dilutions of the target analyte, levetiracetam. The standard curve is then used to calculate the apparent concentration of the interfering substance present in various known amounts in samples assayed under similar condition. The cross-reactivity can be calculated as the apparent concentration divided by the actual concentration multiplied by 100. A certain immunoassay for determining cross-reactivity is a homogeneous enzyme immunoassay using a wild type G6PDH as described in U.S. Pat. No. 3,817,837 or mutant G6PDH engineered to contain a cysteine per subunit as described in U.S. Pat. Nos. 6,033,890, 6,090,567 and 6,455,288. Furthermore, the cross-reactivity can be determined in the same type of immunoassay in which the antibody will ultimately be used.
(§1) The levetiracetam derivative antibodies and enzyme conjugates may be advantageously used in a homogeneous assay format to detect levetiracetam in samples. An enzyme immunoassay or ARK Assay, which is a homogeneous enzyme immunoassay experiment, was performed to test antibodies prepared as described in Example 22. The ARK Assay for levetiracetam was conducted using a liquid, ready-to-use, two-reagent kit. A clinical chemistry analyzer useful to set up the assay is HITACHI 917. The HITACHI 917 is an automated biochemistry analyzer used by medical laboratories to process biological fluid specimens, such as urine, cerebrospinal fluid, and most commonly, blood. Manufactured by Boehringer Mannheim, the HITACHI 917 is a commonly used routine chemical chemistry. Levetiracetam containing sample was incubated with antibody reagent followed by the addition of the enzyme conjugate reagent. The enzyme conjugate activity decreases upon binding to the antibody. […] The oxidation of G6P is coupled with the reduction of NAD to NADH, which was measured at 340 nm. The change in the absorbance at 340 nm was measured spectrophotometrically. The levetiracetam concentration in a specimen was measured in terms of G6PDH activity. The increase in the rate at 340 nm was due to the formation of NADH and is proportional to the enzyme conjugate activity. An assay calibration curve was generated using levetiracetam spiked into negative calibrator matrix. The assay rate increases with increasing the concentration of drug in the sample.
The major metabolic pathway of levetiracetam (24% of dose) is an enzymatic hydrolysis of the acetamide group. The metabolites have no known pharmacological activity and are renally excreted. To human serum negative for levetiracetam was added levetiracetam dissolved in methanol to achieve a concentration of concentration of 30 μg/mL of levetiracetam (FIG. 1(1)).
To a second sample was added 2-pyrrolidone-N-butyric acid dissolved in methanol to achieve a concentration of 150.0 μg/mL 2-pyrrolidone-N-butyric acid (FIG. 1(2)). To a third sample was added 30 μg/mL of levetiracetam plus 406.4 μg/mL 2-pyrrolidone-N-butyric acid (FIG. 1(2)). The samples were assayed on the HITACHI 917. The levetiracetam metabolite, 2-pyrrolidone-N-butyric acid was tested in the immunoassay for potential crossreactivity with Enzyme Conjugate Reagent #110607-D63-E containing conjugate (44-G6PDH) and Antibody Reagent #11341P4-6-Ab containing antibody #12019-P8.

[2] = system: rabbit polyclonal antibody #12019-P8; experiment: Homogeneous enzyme immunoassay (ARK Assay) calibration curve on HITACHI 917, conjugate (44-G6PDH); format: binding
Protocol: Rabbit polyclonal antibody #12019-P8 was used to measure a substantial change in enzyme activity, generate a calibration curve, and evaluate assay precision, accuracy and specificity. The antibody was added into the antibody diluent to prepare the antibody reagent. The antibody reagent consists of antibody as prepared above, buffer, stabilizers, preservatives, and the substrates for the enzyme conjugate nicotinamide adenine dinucleotide (NAM and glucose-6-phosphate. Enzyme conjugate comprising compound (44-G6PDH) G6PDH was added into the conjugate reagent to prepare the enzyme conjugate reagent. The enzyme conjugate reagent comprises the conjugate, buffer, stabilizers and preservatives. Enzyme conjugate (44-G6PDH) was used with rabbit polyclonal antibody #12019-P8 in examples below. This technique is generally applicable to produce polyclonal antibodies to levetiracetam derivatives and assess their utility.
as §1
Levetiracetam was dissolved in methanol to give a stock solution of 1000 μg/mL. Pooled human serum was aliquoted in 10 mL portions. Levetiracetam stock solution was added to the aliquots of human serum in preparing a series of known concentrations of levetiracetam calibrators ranging from 0 to 100 μg/mL. Similarly, Quality Control samples were prepared (15.0, 35.0 and 75.0 μg/mL). The antibody/substrate reagent #11341P4-6-Ab containing antibody ##12019-P8 was assayed with enzyme reagent #110607-D63-E containing conjugate (44-G6PDH). Calibration curves were generated on the HITACHI 917 automated clinical chemistry analyzer, as described in Example 23 by assaying each level in duplicate.

[3] = in vivo; cited from earlier work

| Molecule | Levetiracetam Result ([1]; Concentration Tested 150.0 μg/mL in human serum) [µg/mL] | % Cross Reactivity ([1]; Concentration Tested 150.0 μg/mL) [%] | Levetiracetam Result ([1]; Concentration Tested 406.4 μg/mL in human serum) [µg/mL] | % Cross Reactivity ([1]; Concentration Tested 406.4 μg/mL) [%] | Crossreactivity of antibody #12019-P8 (in words) ([1]; conjugate (44-G6PDH), HITACHI 917) | Reaction Rate (mA/min) Average of Duplicates ([2]; levetiracetam calibrator 5.0 μg/mL in pooled human serum) [mA/min] | Reaction Rate (mA/min) Average of Duplicates ([2]; levetiracetam calibrator 10.0 μg/mL in pooled human serum) [mA/min] | Reaction Rate (mA/min) Average of Duplicates ([2]; levetiracetam calibrator 25.0 μg/mL in pooled human serum) [mA/min] | Reaction Rate (mA/min) Average of Duplicates ([2]; levetiracetam calibrator 50.0 μg/mL in pooled human serum) [mA/min] | Reaction Rate (mA/min) Average of Duplicates ([2]; levetiracetam calibrator 100.0 μg/mL in pooled human serum) [mA/min] | Levetiracetam Result ([1]; Concentration Tested 30.0 μg/mL in human serum) [µg/mL] | % Cross Reactivity ([1]; Concentration Tested 30.0 μg/mL) [%] | Major metabolic pathway: enzymatic hydrolysis of the acetamide group [3] |
| --- | --- | --- | --- | --- | --- | --- | --- | --- | --- | --- | --- | --- | --- |
| 2-pyrrolidone-N-butyric acid | 0 | 0 | 0 | 0 | does not crossreact |  |  |  |  |  |  |  |  |
| CC[C@@H](C(N)=O)N1CCCC1=O (single isomer, unassigned) [Levetiracetam] |  |  |  |  |  | 547.4 | 561.2 | 586.9 | 607.5 | 626.0 | 29.9 | 100 | 24 % of dose |
